Where a name gives a salt, the structure may show the parent alone.
What was measured:
[1] = system: pancreatic ductal adenocarcinoma #03; experiment: antitumor activity in mice against pancreatic ductal adenocarcinoma #03 (Panc 03); format: in vivo
Experimental: (§1) Representative examples of the invention were tested for antitumor activity in mice according to the following procedure:
(§2) The animals were pooled, implanted subcutaneously with 30 to 60 mg tumor fragments by 12-gauge trocar, and again pooled before unselective distribution to the various treatment and control groups. For early-stage treatment, chemotherapy was started within 1 to 5 days after tumor implantation while the number of cells was relatively small (10^7 to 10^8 cells). For advanced-stage treatment, chemotherapy was delayed until the tumor became relatively large (200 to 300 mg in size). A 300-mg tumor contains approximately 3×10^8 total cells. […] Tumors were measured with a caliper weekly (or twice weekly for the more rapidly growing tumors). Mice were sacrificed when their tumors reached 1500 mg (i.e., before they can cause the animal discomfort). Tumor weights were estimated from two-dimensional measurements.
(§3) The treatment and control groups were measured when the control group tumors reached approximately 700 to 1200 mg in size (Median of Group). The median tumor weight of each group was determined (including zeros). […] A T/C value <10% is considered to indicate highly significant antitumor activity.
(§4) The results are shown in Table I for pancreatic ductal adenocarcinoma #03 and in Table 2 for colon adenocarcinoma #38.

[2] = system: colon adenocarcinoma #38; experiment: antitumor activity in mice against colon adenocarcinoma #38; format: in vivo
Experimental: as §1, §2, §3, §4

[3] = Table 1, average body weight 25 g, total doses as in E1
[4] = Table 2, i.p., total dose mg/kg by Example: 10:340, 11:518
[5] = Table 2, p.o., total dose mg/kg by Example: 10:460, 11:885
[6] = Table 2, p.o., total dose mg/kg by Example: 10:740, 11:1709
[7] = Table 2, i.v., total dose mg/kg by Example: 2:600, 5:960, 6:132, 7:840, 16(a):1000, 18(e):180
[8] = Table 2, i.v., total dose mg/kg by Example: 6:82, 16(a):690, 18(e):120

Row | Compound | T/C [1] | Weight Loss [1, 3] | Drug Deaths ([1]; Table 1, total doses as in E1) | Weight Loss ([1]; mouse, in vivo) | further results
1 | CCN(CC)CCNc1ccc(CN(C)S(=O)(=O)CC)c2sc3ccccc3c(=O)c12.CS(=O)(=O)O [Example 22, N-[[1-[[2-(Diethylamino)ethyl]amino]-9-oxothioxanthen-4-yl]methyl]-N-methyl-ethanesulfonamide methanesulfonate] | 0% | 3.2 g | 0 | – | –
2 | CN(C)CCCNc1ccc(CNS(C)(=O)=O)c2sc3ccccc3c(=O)c12 [21(c), N-[[1-[[3-(Dimethylamino)propyl]amino]-9-oxothioxanthen-4-yl]methyl]methanesulfonamide methanesulfonate·1/2 hydrate] | 0% | – | 0 | 4.5 g | –
3 | CCN(CC)CCNc1ccc(CN(C)S(=O)(=O)c2ccccc2)c2sc3ccccc3c(=O)c12.CS(=O)(=O)O [Example 29, N-[[1-[[2-(Diethylamino)ethyl]amino]-9-oxothioxanthen-4-yl]methyl]-N-methyl-benzenesulfonamide methanesulfonate] | 6% | 2.4 g | 0 | – | –
4 | CCNCc1ccc(NCCN(CC)CC)c2c(=O)c3ccccc3sc12 [Example 14, 1-[[2-(Diethylamino)ethyl]amino]-4-[(ethylamino)-methyl]thioxanthen-9-one] | 0% | 1.2 g | 0 | – | –
5 | CCN(CC)CCNc1ccc(CNC(=O)c2ccccc2)c2sc3ccccc3c(=O)c12 [Example 11, N-[[1-[[2-(Diethylamino)ethyl]amino]-9-oxothioxanthen-4-yl]methyl]benzamide] | 0% | 0.8 g | 0 | – | Drug Deaths [2, 4]: 0; Weight Loss [2, 4]: 0.8 g; Drug Deaths [2, 5]: 0; Weight Loss [2, 5]: 0.8 g; Drug Deaths [2, 6]: 0; Weight Loss [2, 6]: 2.0 g; T/C ([2]; ip): 39%; T/C ([2]; po): 0%
6 | CCN(CC)CCNc1ccc(CNC=O)c2sc3ccccc3c(=O)c12 [Example 2, N-[[1-[[2-(Diethylamino)ethyl]amino]-9-oxothioxanthen-4-yl]methyl]formamide] | 0% | 2.0 g | 0 | – | Drug Deaths [2, 7]: 0; T/C ([2]; iv): 0%; Weight Loss ([2]; mouse, in vivo, iv): 2.8 g
7 | CCN(CC)CCNc1ccc(CNS(C)(=O)=O)c2sc3ccc(O)cc3c(=O)c12 [Example 37, N-[[1-(2-Diethylamino)ethyl]amino]-7-hydroxy-9-oxothioxanthen-4-yl]methyl]methanesulfonamide·3/4 hydrate] | 7% | – | 0 | 0 g | –
8 | CCN(CC)CCNc1ccc(CNS(=O)(=O)c2ccccc2F)c2sc3ccccc3c(=O)c12 [Example 27, N-[[1-[[2-(Diethylamino)ethyl]amino]-9-oxothioxanthen-4-yl]methyl]-2-fluorobenzenesulfonamide] | 5% | +0.8 g | 0 | – | –
9 | CN(C)CCNc1ccc(CN)c2sc3ccccc3c(=O)c12 [18(e), 4-(Aminomethyl)-l-[[2-dimethylamino)ethyl]amino]-9-oxothioxanthen-9-one dihydrochloride·1/2 hydrate] | – | 1.0 g | 0 | – | Drug Deaths [2, 7]: 4/5; Drug Deaths [2, 8]: 0; Weight Loss [2, 8]: 1.0 g; Weight Loss ([2]; mouse, in vivo, iv): 2.2 g
10 | CCN(CC)CCNc1ccc(CNS(=O)(=O)c2ccc(OC)cc2)c2sc3ccccc3c(=O)c12.CS(=O)(=O)O [Example 23, N-[[1-[[2-(Diethylamino)ethyl]amino]-9-oxothioxanthen-4-yl]methyl](p-methoxy)benzenesulfonamide methanesulfonate] | 20% | 2.4 g | 0 | – | –
11 | CCN(CC)CCNc1ccc(CNS(=O)(=O)CC)c2sc3ccccc3c(=O)c12.CS(=O)(=O)O [Example 24, N-[[1-[[2-(Diethylamino)ethyl]amino]-9-oxothioxanthen-4-yl]methyl]ethanesulfonamide methanesulfonate] | 0% | 2.3 g | 0 | – | –
12 | CCCN(Cc1ccc(NCCN(CC)CC)c2c(=O)c3ccccc3sc12)S(C)(=O)=O [Example 28, N-[[1-[[2-(Diethylamino)ethyl]amino]-9-oxothioxanthen-4-yl]methyl]-N-propyl-methanesulfonamide] | 0% | 2.8 g | 0 | – | –
13 | CCN(CC)CCNc1ccc(CNS(=O)(=O)c2ccc(Cl)c(Cl)c2)c2sc3ccccc3c(=O)c12 [Example 26, N-[[1-[[2-(Diethylamino)ethyl]amino]-9-oxothioxanthen-4-yl]methyl]-3,4-dichlorobenzenesulfonamide methanesulfonate·1/2 hydrate] | 13% | – | 0 | 2.2 g | –
14 | CNCc1ccc(NCCN(C)C)c2c(=O)c3ccccc3sc12 [20(b), 1-[[2-(Dimethylamino)ethyl]amino]-4-[(methylamino)-methyl]thioxanthen-9-onedihydrochloride-5/4 hydrate] | 10% | – | 0 | 0.4 g | –
15 | CCN(CC)CCNc1ccc(CNS(=O)(=O)c2ccccc2)c2sc3ccccc3c(=O)c12 [Example 9, N-[[1-[[2-(Diethylamino)ethyl]amino]-9-oxothioxanthen-4-yl]methyl]phenylsulfonamide] | 8% | 1.6 g | 0 | – | –
16 | CCN(CC)CCNc1ccc(CN=CN(C)C)c2sc3ccccc3c(=O)c12 [Example 15, 1-[[2-(Diethylamino)]ethyl]amino]-4-(dimethylaminomethylene-aminomethyl)-thioxanthen-9-one trihydrochloride] | 0% | – | 0 | 2.0 g | –
17 | CNCc1ccc(NCCCN(C)C)c2c(=O)c3ccccc3sc12 [19(e), 1-[[3-(Dimethylamino)propyl]amino]-4-[(methylaminomethyl]thioxanthen-9-one dihydrochloride monohydrate] | 4% | – | 0 | 3.4 g | –
18 | CCN(CC)CCCNc1ccc(CNC)c2sc3ccccc3c(=O)c12 [17(f), 1-[[3-(Diethylamino)propyl]amino]-4-(methylaminomethyl)thioxanthen-9-one dihydrochloride 3/2 hydrate] | 17% | – | 0 | 2.0 g | –
19 | CCN(CC)CCNc1ccc(CN(C)S(C)(=O)=O)c2sc3ccccc3c(=O)c12 [Example 8, N-[[1-[[2-(Diethylamino)ethyl)amino]-9-oxothioxanthen-yl]methyl]N-methylmethanesulfonamide] | 0% | – | 0 | 0.8 g | –
20 | CCN(CC)CCNc1ccc(C(N)=O)c2sc3ccccc3c(=O)c12 [Example 7, 1-[[2'-(Diethylamino)ethyl]amino]-9-oxothioxanthene-4-carboxamide] | – | 3.2 g | 1/5 | – | Drug Deaths [2, 7]: 0; Weight Loss ([2]; mouse, in vivo, iv): 0.6 g
21 | CCN(CC)CCNc1ccc(CN)c2sc3ccccc3c(=O)c12 [Example 4, 4-(Aminomethyl)-1-[[2-(diethylamino)ethyl]amino]-thioxanthen-9-one] | 0% | 0.4 g | 0 | – | –
22 | CN(C)CCNc1ccc(CNS(C)(=O)=O)c2sc3ccccc3c(=O)c12.CS(=O)(=O)O [18(f), N-[[1-[[2-(Dimethylamino)ethyl]amino]-9-oxothioxanthen-4-yl]methyl]methanesulfonamide methanesulfonate] | – | 5.2 g | 2/5 | – | –
23 | CCN(CC)CCNc1ccc(CNS(C)(=O)=O)c2sc3ccc(Br)cc3c(=O)c12 [Example 33, N-[[1-[[2-(Diethylamino)ethyl]amino]-7-bromo-9-oxothioxanthen-4-yl]methyl]methanesulfonamide] | 28% | 2.0 g | 0 | – | –
24 | CCOP(=O)(NCc1ccc(NCCN(CC)CC)c2c(=O)c3ccccc3sc12)OCC [Example 12] | – | 3.2 g | 0 | – | –
25 | CCN(CC)CCNc1ccc(C=Nc2ccccc2)c2sc3ccccc3c(=O)c12 [Example 1, 1-[[2-(Diethylamino)ethyl]amino]-4-(N-phenylformimidoyl)thioxanthen-9-one] | 0% | 1.6 g | 0 | – | –
